According to patent US4499104A, “Imidazole compound, the process for its preparation, and therapeutically active compositions containing same” (priority 1976, dated 1985):
Read-outs that look alike come from different tables or passages of the source.

Key:
[1] = Edema by carrageen in normal and adrenoprival (suprarenectomised) rats; assay type: in vivo, rat; design: Edema by carrageen: unit not given beside the values
Experimental: A 1% physiological solution of carrageen was used. Rats of the Wistar-Roux-Ocefa stock having a weight of 150±30 g were used. The drugs were suspended in 1% carboxymethylcellulose or dissolved in distilled water and administered orally one hour before the inflammatory agent in a volume of 0.5 ml/100 g. The carrageen was adminstered subcutaneously in the subplanetary region of one of the rear paws. The volume of the paw was measured platysmagraphically initially and then after 1.5 hour, 3 hours and 5 hours after administering the carrageen. One inflammation unit was defined as the displacement of 0.01 ml of Hg.
The edema was evaluated as the difference in volume of the rear paw before and after the carrageen. The DE 50 was calculated by the probits method and graphically. The comparison drugs used were phenylbutazone and niflumic acid.
To evaluate if the activity of the chlorophenazole on edema by carrageen was influenced by stimulation of the suprarenes, experiments were carried out with suprarenectomised rats. Normal rats were also compared with falsely operated rats to evaluate the influence of the operational trauma.

[2] = Stretching by acetic acid (chemical stimulus), analgesic activity; assay type: in vivo, mice, Rockland-Roux-Ocefa stock
Experimental: Twelve mice of both sexes, Rockland-Roux-Ocefa stock of weight 23-25 g were used per group. The drugs were administered orally 30 minutes before i.p. injection of 0.1 ml/10 g of 0.6% acetic acid.

[3] = Anticonvulsive activity against strychnine; assay type: in vivo, Rockland-Ocefa mice; conditions: for Protection from convulsivant strychnine, first value: first of two values; for Protection from convulsivant strychnine, second value: second of two values
Experimental: Rockland-Ocefa mice of both sexes weighing 22±3 g and fasting for 16 hours were used. The convulsive agents were administered i.p. in doses of 2 mg/kg of strychnine sulphate and 110 mg/kg of cardiazole.

Acute toxicity, mouse = conditions: in vivo, read-out: DL50 and L.F.
Rat = conditions: in vivo

Cc1[nH]cnc1-c1ccc(Cl)cc1 [Chlorophenazole, 4-(p-chlorophenyl)-5-methylimidazole]
dependence of activity on the suprarenal cortex ([1]; adrenoprival rats): independent of the suprarenal cortex | Edema by carrageen ([1]; adrenoprival rats, 10 mg/kg, 1.5 hours): 22 | Edema by carrageen ([1]; adrenoprival rats, 10 mg/kg, 3 hours): 27 | Edema by carrageen ([1]; adrenoprival rats, 10 mg/kg, 5 hours): 55 | Edema by carrageen ([1]; adrenoprival rats, 20 mg/kg, 1.5 hours): 16 | Edema by carrageen ([1]; adrenoprival rats, 20 mg/kg, 3 hours): 18 | Edema by carrageen ([1]; adrenoprival rats, 20 mg/kg, 5 hours): 45 | Edema by carrageen ([1]; adrenoprival rats, 40 mg/kg, 1.5 hours): 13 | Edema by carrageen ([1]; adrenoprival rats, 40 mg/kg, 3 hours): 20 | Edema by carrageen ([1]; adrenoprival rats, 40 mg/kg, 5 hours): 39 | Edema by carrageen ([1]; normal rats, 10 mg/kg, 1.5 hours): 15 | Edema by carrageen ([1]; normal rats, 10 mg/kg, 3 hours): 35 | Edema by carrageen ([1]; normal rats, 10 mg/kg, 5 hours): 58 | Edema by carrageen ([1]; normal rats, 20 mg/kg, 1.5 hours): 15 | Edema by carrageen ([1]; normal rats, 20 mg/kg, 3 hours): 29 | Edema by carrageen ([1]; normal rats, 20 mg/kg, 5 hours): 44 | Edema by carrageen ([1]; normal rats, 40 mg/kg, 1.5 hours): 15 | Edema by carrageen ([1]; normal rats, 40 mg/kg, 3 hours): 23 | Edema by carrageen ([1]; normal rats, 40 mg/kg, 5 hours): 42 | % effect ([2]; 21.3 mg/kg oral): 18% | Number of stretches/20 min. ([2]; 21.3 mg/kg oral): 70 stretches/20 min. | % effect ([2]; 33.0 mg/kg oral): 42% | Number of stretches/20 min. ([2]; 33.0 mg/kg oral): 49 stretches/20 min. | % effect ([2]; 51.0 mg/kg oral): 66% | Number of stretches/20 min. ([2]; 51.0 mg/kg oral): 29 stretches/20 min. | analgesic activity ([2]; oral): very good analgesic activity, decidedly better than that of the clonixine (Table 5) and mepyrazole | Protection from convulsivant strychnine, first value ([3]; 50 mg/kg, 15'): 7.0 | Protection from convulsivant strychnine, second value ([3]; 50 mg/kg, 15'): 7.4 | Protection from convulsivant strychnine, first value ([3]; 50 mg/kg, 30'): 12.8 | Protection from convulsivant strychnine, second value ([3]; 50 mg/kg, 30'): 12.6 | Protection from convulsivant strychnine, first value ([3]; 50 mg/kg, 90'): 8.7 | Protection from convulsivant strychnine, second value ([3]; 50 mg/kg, 90'): 13.8 | Protection from convulsivant strychnine, first value ([3]; 100 mg/kg, 15'): 11.7 | Protection from convulsivant strychnine, second value ([3]; 100 mg/kg, 15'): 19.5 | Protection from convulsivant strychnine, first value ([3]; 100 mg/kg, 30'): 11.3 | Protection from convulsivant strychnine, second value ([3]; 100 mg/kg, 30'): 13.8 | Protection from convulsivant strychnine, first value ([3]; 100 mg/kg, 90'): 9.5 | Protection from convulsivant strychnine, second value ([3]; 100 mg/kg, 90'): 11.5 | Protection from convulsivant strychnine, first value ([3]; 200 mg/kg, 15'): 28.6 | Protection from convulsivant strychnine, second value ([3]; 200 mg/kg, 15'): 18.3 | Protection from convulsivant strychnine, first value ([3]; 200 mg/kg, 30'): 12.8 | Protection from convulsivant strychnine, second value ([3]; 200 mg/kg, 30'): 16.0 | Protection from convulsivant strychnine, first value ([3]; 200 mg/kg, 90'): 18.2 | Protection from convulsivant strychnine, second value ([3]; 200 mg/kg, 90'): 21.0 | LD50 (Acute toxicity, mouse; ip): 175 mg/kg | LD50 (Acute toxicity, mouse; po, os): 534 mg/kg | toxicity relative to niflumic acid (Rat): much less toxic than the latter
